# In patent US20080194630A1, “LTA4H modulators and uses thereof” (priority 2007, published 2008):
# What was measured:
# [1] = system: atopic dermatitis; conditions: small open-label trial in AD; cited from earlier work
# [2] = system: pruritus; conditions: human, in vivo; cited from earlier work
# [3] = system: ionophore-induced LTB4 production; conditions: oral administration; cited from earlier work
# [4] = system: ionophore-induced LTB4 production; conditions: oral administration; cited from earlier work; remark: listed apart in the source
# [5] = system: neutrophil influx (myeloperoxidase, MPO); assay: Murine arachidonic acid-induced inflammation model: neutrophil influx in ear (myeloperoxidase activity); assay type: in vivo, female Balb/c mice; conditions: Mus musculus, 30 mg/kg oral gavage 60 min before topical arachidonic acid, ear biopsy after 3 h, vs animals without inhibitor
# Experimental: Murine arachidonic acid-induced inflammation model LTA4H inhibitor compounds of the present invention were dissolved in 20% cyclodextran/H2O at a concentration of 3 mg/mL. The solutions were administered by oral gavage to female Balb/c mice weighing approximately 20 grams each (0.2 mL per mouse, 30 mg of LTA4H inhibitor compound per kg). Sixty minutes after being administered an LTA4 inhibitor, each mouse received topical application of 20 μL of arachidonic acid (100 mg/mL in acetone) to the left ear and 20 μL of acetone only to the right ear. After 3 h, the mice were sacrificed, blood was withdrawn in heparinized syringes, and 8 mm ear biopsies were taken. Ear biopsies were weighed to determine edema and then frozen at -80° C. until needed for determination of neutrophil influx. Neutrophil influx was quantified by measuring the activity of myeloperoxidase (MPO), a neutrophil-specific enzyme. […] Debris was removed by centrifugation at 14000×g for 10 min. […] The microtiter plate contents were held at room temperature for 1 h. […] H2SO4 to each sample well, and the myeloperoxidase activity in each sample was determined from the absorbance at 405 nm. […] The percent inhibition of neutrophil influx (% Inh. MPO) by compounds of the invention was determined by comparison to animals treated identically, except that the solution administered by oral gavage was devoid of inhibitor compound.
# [6] = system: LTB4 production in murine whole blood (LTA4H); assay: LTB4 production by calcium ionophore-stimulated murine blood for LTA4H inhibitor activity; assay type: cell-based, CD-1 mice; conditions: CD-1 mouse blood diluted 1:15, calcium ionophore A23187 20 ng/mL, LTB4 by enzyme-linked immunoassay
# [7] = system: ex vivo stimulated LTB4 production; assay: Murine arachidonic acid-induced inflammation model: ex vivo stimulated LTB4 production in blood; design: species or system female Balb/c mice; conditions: 30 mg/kg oral gavage, blood taken 3 h after arachidonic acid, ex vivo A23187 stimulation, vs animals without inhibitor
# Experimental: Murine arachidonic acid-induced inflammation model
# LTA4H inhibitor compounds of the present invention were dissolved in 20% cyclodextran/H2O at a concentration of 3 mg/mL. The solutions were administered by oral gavage to female Balb/c mice weighing approximately 20 grams each (0.2 mL per mouse, 30 mg of LTA4H inhibitor compound per kg). Sixty minutes after being administered an LTA4 inhibitor, each mouse received topical application of 20 μL of arachidonic acid (100 mg/mL in acetone) to the left ear and 20 μL of acetone only to the right ear. After 3 h, the mice were sacrificed, blood was withdrawn in heparinized syringes, and 8 mm ear biopsies were taken. […]
# One hundred-microliter aliquots of heparinized blood were added to wells of a microtiter plate, along with equal volumes of RPMI-1640 medium, and calcium ionophore A23187 was added to each sample well (final concentration=20 ng/μL). […] Supernatants were analyzed for LTB4 by a commercially available enzyme-linked immunoassay (Cayman Chemical Co.) in accordance with the manufacturer's instructions. The percent inhibition of ex vivo stimulated LTB4 production (% Inh. LTB4) was determined by comparison to animals treated identically except that the solution admininstered by oral gavage was devoid of inhibitor compound.
smiles,measurement,setting,value
CC(c1cc2ccccc2s1)N(O)C(N)=O (centres unmarked) [zileuton],effects in atopic dermatitis,[1],beneficial effects
same,pruritus in Sjögren-Larsson syndrome patients,[2],relieving the pruritus
CN(CCCOc1ccc(Cc2ccccc2)cc1)CCC(=O)O.Cl [SC57461],ionophore-induced LTB4 production in mouse blood ex vivo,[3],caused inhibition
same,ionophore-induced LTB4 production in rat peritoneum in vivo,[4],caused inhibition
"CC(C)N(CCC(=O)O)CCc1ccc(Oc2nc3ccccc3s2)cc1 [Example 180, 3-({2-[4-(Benzothiazol-2-yloxy)-phenyl]-ethyl}-isopropyl-amino)-propionic acid]",inhibition at 30 mg/kg,[5],87%
same,IC50,[6],15 nM
same,inhibition at 30 mg/kg,"[7]; Mus musculus, read-out: % Inh. LTB4",87%
"O=C(O)C1CCN(Cc2ccc(Oc3nc4ccccc4s3)cc2)CC1 [Example 250, 1-[4-(Benzothiazol-2-yloxy)-benzyl]-piperidine-4-carboxylic acid]",% Inh. LTB4,[7],80%
